Measured values published in patent US20110189758A1, “TRANSFECTION VECTOR” (Anaeropharma Science, Inc., priority 2010, published 2011).
Where two headings read alike, the source gives them in different places.

System: Human breast cancer cell line KPL-1 tumor
Assay type: in vivo, nude mouse

SMILES: COc1cccc2c1C(=O)c1c(O)c3c(c(O)c1C2=O)C[C@@](O)(C(=O)CO)C[C@@H]3O[C@H]1C[C@H](N)[C@H](O)[C@H](C)O1 [adriamycine, adriamycin]
- Tumor volume, Average (Day 0 (grouping)): 97.7 mm3
- Tumor volume, Average (Day 4): 133.6 mm3
- Tumor volume, Average (Day 7): 145.4 mm3
- Tumor volume, Average (Day 11): 257.9 mm3
- Tumor volume, Average (Day 15): 415.2 mm3
- Tumor volume, Average (Day 19): 625.2 mm3
- Tumor volume, Average (Day 21): 852.6 mm3
- T/C (%) at Day 21 (average tumor volume of group / Group I × 100): 63.8%
